In ChEMBL document CHEMBL1687784, “Frequency of spontaneous resistance to fosfomycin combined with different antibiotics in Pseudomonas aeruginosa” (2010):
Converted amounts (≈) assume the structure as drawn.

Assays:
Pseudomonas aeruginosa [1] = experiment: Antimicrobial activity against Pseudomonas aeruginosa PA14 mutS gene hypermutant by EUCAST method; type: functional
Pseudomonas aeruginosa [2] = experiment: Antimicrobial activity against Pseudomonas aeruginosa PA14 by EUCAST method; type: functional

Compound | MIC (Pseudomonas aeruginosa [1]) [µg/mL] | MIC (Pseudomonas aeruginosa [2]) [µg/mL]
NCC[C@H](O)C(=O)N[C@@H]1C[C@H](N)[C@@H](O[C@H]2O[C@H](CN)[C@@H](O)[C@H](O)[C@H]2O)[C@H](O)[C@H]1O[C@H]1O[C@H](CO)[C@@H](O)[C@H](N)[C@H]1O [AMIKACIN] | 1 (≈ 1.71 µM) | 1 (≈ 1.71 µM)
CC(C)(O/N=C(\C(=O)N[C@@H]1C(=O)N2C(C(=O)[O-])=C(C[n+]3ccccc3)CS[C@H]12)c1csc(N)n1)C(=O)O [CEFTAZIDIME] | 1 (≈ 1.83 µM) | 1 (≈ 1.83 µM)
O=C(O)c1cn(C2CC2)c2cc(N3CCNCC3)c(F)cc2c1=O [CIPROFLOXACIN] | 0.1 (≈ 0.302 µM) | 0.1 (≈ 0.302 µM)
C[C@@H]1O[C@@H]1P(=O)(O)O [FOSFOMYCIN] | 8 (≈ 57.9 µM) | 8 (≈ 57.9 µM)
C[C@@H](O)[C@H]1C(=O)N2C(C(=O)O)=C(SCCNC=N)C[C@H]12 [IMIPENEM ANHYDROUS] | 0.5 (≈ 1.67 µM) | 0.5 (≈ 1.67 µM)
C[C@@H](O)[C@H]1C(=O)N2C(C(=O)O)=C(S[C@@H]3CN[C@H](C(=O)N(C)C)C3)[C@H](C)[C@H]12 [MEROPENEM] | 0.25 (≈ 0.652 µM) | 0.25 (≈ 0.652 µM)
NC[C@H]1O[C@H](O[C@H]2[C@H](O)[C@@H](O[C@H]3O[C@H](CO)[C@@H](O)[C@H](N)[C@H]3O)[C@H](N)C[C@@H]2N)[C@H](N)C[C@@H]1O [TOBRAMYCIN] | 1 (≈ 2.14 µM) | 1 (≈ 2.14 µM)
COLISTIN | 0.5 | 0.5
